Values of other authors in the CATMoS acute toxicity set (Mansouri et al. 2021).
Several values for one entry are separate records, joined by “and”; a condition that tells them apart may be missing. Equal entries are not always repeated.

Test: rat acute oral toxicity
Conditions: in vivo

| Structure (SMILES) | LD50 |
| --- | --- |
| CC(C)(C)NCC(O)COc1cccc2c1C[C@H](O)[C@H](O)C2 (stereo partly drawn) | 5300 mg/kg |
| NC(=O)NO | 5760 mg/kg |
| COP(=O)(OC)Oc1ccc(S(C)(=O)=O)c(C)c1 | 30 mg/kg |
| FC(F)(F)c1nc2c(Cl)cc(I)cc2[nH]1 | 1.44 mg/kg |
| COC(C)=O | 6480 mg/kg |
| O=C1OC(=O)C2CCCCC12 (stereo not drawn) | 4040 mg/kg |
| Cn1cc(OCC(O)CNC(C)(C)C)c2ccccc2c1=O (stereo not drawn) | 145 mg/kg |
| CCN(CC)CCNC(=O)c1cc(Br)c(N)cc1OC | 545 mg/kg |
| CN(Cc1ccc(Cl)cc1Cl)S(N)(=O)=O | 2350 mg/kg |
| CNC(C)Cc1ccccc1 (racemic) | 29 mg/kg |
| NC(=S)Nc1ccccc1Cl | 4.6 mg/kg |
| S=c1[nH]n(-c2ccccc2)c(=S)s1 | 763 mg/kg |
| CCOC(=O)C1CC2CC1C1OC21 (stereo not drawn) | 4760 mg/kg |
| Cc1ccccn1 | 790 mg/kg |
| O=C(c1cc2ccccc2o1)N1CCN(Cc2ccccc2)CC1 | 2530 mg/kg |
| Nc1ccc(F)c([N+](=O)[O-])c1 | 1100 mg/kg |
| CCN(CC)C(C)=O | 1500 mg/kg |
| c1ccc2c3c([nH]c2c1)CCCC3 | 2650 mg/kg |
| O=C(Nc1nc(C(F)(F)F)c(Cl)s1)c1cc(C(F)(F)F)cc(C(F)(F)F)c1 | 69 mg/kg |
| COc1cc(-c2ccc(N=Nc3c(O)ccc4ccccc34)c(OC)c2)ccc1N=Nc1ccc2c(S(=O)O)cc(S(=O)(=O)O)c(N)c2c1 | 6700 mg/kg |

| Structure (SMILES) | LD50 |
| --- | --- |
| Cc1ncc(CS)c(CO)c1O | 3000 mg/kg |
| Cc1[nH]c(=O)n(C(C)C)c(=O)c1Br | 3400 mg/kg |
| O=C(O)C1=Cc2sc(Cn3ccnc3)cc2CC1 | 1880 mg/kg |
| CC(C)(C)CC(C)(C)c1ccc(OCCOS(=O)(=O)O)cc1 | 27000 mg/kg |
| C[N+](C)(C)CC[N+]1(C)Cc2c(Cl)c(Cl)c(Cl)c(Cl)c2C1 | 300 mg/kg |
| ClCC(Cl)(Cl)Cl | 670 mg/kg |
| C[C@]12CCC(=O)C=C1[C@@H]1C[C@@H]1[C@@H]1[C@@H]2CC[C@@]2(C)[C@H]1CC[C@@]2(O)CCC(=O)O | 1400 mg/kg |
| O=C1C(Cl)C2(Cl)C3C(Cl)OCC3C1(Cl)C2(Cl)Cl (stereo not drawn) | 100 mg/kg |
| O=C(O)C(F)(F)C(F)(F)C(F)(F)C(F)(F)C(F)(F)C(F)(F)C(F)(F)C(F)F | 821 mg/kg |
| O=[N+]([O-])C(CO)(CO)CO | 1900 mg/kg |
| CCCCCCCC(C)=O | 3200 mg/kg |
| CCN(CC)CCOc1ccc(C(=C(Cl)c2ccccc2)c2ccccc2)cc1 | 5750 mg/kg |
| C[N+]1(C)CCc2cc(Cl)ccc21 | 447 mg/kg |
| CN(C/C=C/C#CC(C)(C)C)Cc1cccc2ccccc12 | 4000 mg/kg |
| O=C(O)CCC(=O)Nc1ccc(NS(=O)(=O)c2ccc([N+](=O)[O-])cc2)cc1 | 1500 mg/kg |
| CCOC(C1=NCCCN1)c1c(Cl)cccc1Cl (stereo not drawn) | 625 mg/kg |
| FC(F)=C(F)c1ccccc1 | 2500 mg/kg |
| O=c1oc2cc(O)ccc2s1 | 633 mg/kg |
| Cc1ncc(CSSCc2cnc(C)c(O)c2CO)c(CO)c1O | 6000 mg/kg |
| Cc1ccc(-c2nc3n(c2C=NNC(=O)CN(C)C)CCS3)cc1 | 800 mg/kg |

| Structure (SMILES) | LD50 |
| --- | --- |
| COP(=S)(NC(C)C)Oc1ccc(C)cc1[N+](=O)[O-] (stereo not drawn) | 309 mg/kg |
| COc1cc(OC)n2nc(N)nc2n1 | 1030 mg/kg |
| COC(=O)C1=C(C)NC(C)=C(C(=O)OCC(C)C)C1c1ccccc1[N+](=O)[O-] (stereo not drawn) | 1260 mg/kg |
| C=CCN(CC=C)N=O | 800 mg/kg |
| c1ccc(CC2=NCCN2)cc1 | 1200 mg/kg |
| O=[N+]([O-])c1cc([N+](=O)[O-])c2nc(C(F)(F)F)[nH]c2c1 | 11.5 mg/kg |
| O=C1CCc2cc(C(=O)CCN3CCN(c4ccccc4)CC3)ccc2N1 | 500 mg/kg |
| O=C(O)Cc1cc(O)ccc1Nc1c(Cl)cc(O)cc1Cl | 1000 mg/kg |
| CN1CCC(CN2c3ccccc3Sc3ccccc32)C1 (stereo not drawn) | 260 mg/kg and 162 mg/kg |
| Nc1ncnc2[nH]ncc12 | 141 mg/kg |
| Cc1ccc2ccc(=O)oc2c1 | 3800 mg/kg |
| CCCC(C)C(=O)Nc1ccc(C)c(Cl)c1 (stereo not drawn) | 5100 mg/kg |
| COc1cc(CC(C)N)cc2c1OCO2 (stereo not drawn) | 170 mg/kg |
| CCCC(=O)OC(=O)CCC | 8790 mg/kg |
| O=c1oc2cc(Cl)ccc2n1CCl | 2350 mg/kg |
| O=[N+]([O-])c1ccc2ccccc2c1 | 4400 mg/kg |
| NC(=O)CCCCC1CCSS1 (stereo not drawn) | 1980 mg/kg |
| OC1(c2ccc(Cl)cc2)CCNCC1 | 465 mg/kg |
